The values that follow come from PubChem BioAssay AID256 (DTP/NCI, 2004).

For the assay, the system named is CD2F1 mice, L1210 leukemia ip, survival T/C. Put plainly: NCI In Vivo Anticancer Drug Screen. Data for tumor model L1210 Leukemia (intraperitoneal) in CD2F1 (CDF1) mice. The settings on record: higher = longer survival. The method in brief:
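In this screen, transplantable tumors were grown in mice given either the compound or its vehicle. Results were expressed as the treated measurement relative to the control measurement.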

[1] abbreviates: endpoint: mean survival time, dose: 25.0 mg/kg/injection, schedule: Q01DX009 (ip), vehicle: Klucel (hydroxypropylcellulose) (HPC).
[2] abbreviates: endpoint: mean survival time, dose: 50.0 mg/kg/injection, schedule: Q01DX009 (ip), vehicle: Klucel (hydroxypropylcellulose) (HPC).
Setting [3] is: endpoint: mean survival time, dose: 100.0 mg/kg/injection, schedule: Q04DX003 (ip), vehicle: saline with Tween-80.
Setting [4] is: endpoint: mean survival time, dose: 200.0 mg/kg/injection, schedule: Q04DX003 (ip), vehicle: saline with Tween-80.
[5] abbreviates: endpoint: mean survival time, dose: 100.0 mg/kg/injection, schedule: Q01DX009 (ip), vehicle: saline with Tween-80.
Setting [6] is: endpoint: mean survival time, dose: 100.0 mg/kg/injection, schedule: Q01DX005 (ip), vehicle: distilled water + Tween-80.

Several values for one entry are separate records, joined by “and”; a condition that tells them apart may be missing. Identical values can stand only once. Toxic doses and inconclusive results are not listed.

Consider `[Cl][Pt][Cl].[NH-]C(CCC(N)=O)C(=O)O` (centres undefined), for which the T/C is, setting by setting: (endpoint: median survival time, dose: 12.5 mg/kg/injection, schedule: Q04DX003 (ip), vehicle: water) 100 % of control; (endpoint: median survival time, dose: 25.0 mg/kg/injection, schedule: Q04DX003 (ip), vehicle: water) 101 % of control; (endpoint: median survival time, dose: 50.0 mg/kg/injection, schedule: Q04DX003 (ip), vehicle: water) 108 % of control; (endpoint: median survival time, dose: 100.0 mg/kg/injection, schedule: Q04DX003 (ip), vehicle: water) 107 % of control; (endpoint: median survival time, dose: 200.0 mg/kg/injection, schedule: Q04DX003 (ip), vehicle: water) 111 % of control.
`OC(CCC(O)c1ccccc1)c1ccccc1` (centres undefined): the T/C is 98 % of control (endpoint: mean survival time, dose: 75.0 mg/kg/injection, schedule: Q01DX001 (ip), vehicle: saline sonified); 96 % of control (endpoint: mean survival time, dose: 150.0 mg/kg/injection, schedule: Q01DX001 (ip), vehicle: saline sonified); 94 % of control (endpoint: mean survival time, dose: 300.0 mg/kg/injection, schedule: Q01DX001 (ip), vehicle: saline sonified).
As to `O=C(C#Cc1ccccc1)c1ccccc1`, the T/C runs as follows: (endpoint: mean survival time, dose: 3.12 mg/kg/injection, schedule: Q01DX009 (ip), vehicle: Klucel (hydroxypropylcellulose) (HPC)) 86 % of control and 98 % of control; (endpoint: mean survival time, dose: 6.25 mg/kg/injection, schedule: Q01DX009 (ip), vehicle: Klucel (hydroxypropylcellulose) (HPC)) 92 % of control and 97 % of control; (endpoint: mean survival time, dose: 12.5 mg/kg/injection, schedule: Q01DX009 (ip), vehicle: Klucel (hydroxypropylcellulose) (HPC)) 92 % of control and 104 % of control; under setting [1], 86 % of control and 107 % of control; under setting [2], 89 % of control.
`CC1OC(C)(C)OC1C(=O)OCc1ccccc1` (centres undefined): the T/C under setting [1] is 96 % of control; the T/C under setting [2] is 93 % of control; the T/C (endpoint: mean survival time, dose: 100.0 mg/kg/injection, schedule: Q01DX009 (ip), vehicle: Klucel (hydroxypropylcellulose) (HPC)) was 99 % of control; the T/C (endpoint: mean survival time, dose: 200.0 mg/kg/injection, schedule: Q01DX009 (ip), vehicle: Klucel (hydroxypropylcellulose) (HPC)) was 94 % of control; the T/C (endpoint: mean survival time, dose: 400.0 mg/kg/injection, schedule: Q01DX009 (ip), vehicle: Klucel (hydroxypropylcellulose) (HPC)) was 99 % of control.
As to `CNC1CCCCCC1`, the T/C (endpoint: mean survival time, dose: 75.0 mg/kg/injection, schedule: Q01DX001 (ip), vehicle: saline) was 101 % of control and the T/C (endpoint: mean survival time, dose: 150.0 mg/kg/injection, schedule: Q01DX001 (ip), vehicle: saline) is 101 % of control.
For `O=C(O)c1ccc(S(=O)(=O)N(Cl)Cl)cc1`, the T/C under setting [3] is 109 % of control; the T/C under setting [4] is 95 % of control; the T/C (endpoint: mean survival time, dose: 400.0 mg/kg/injection, schedule: Q04DX003 (ip), vehicle: saline with Tween-80) was 95 % of control.
For `c1ccc(Cn2cc(CCc3ccncc3)c3ccccc32)cc1`, the T/C was 88 % of control (endpoint: mean survival time, dose: 50.0 mg/kg/injection, schedule: Q01DX009 (ip), vehicle: saline with Tween-80); 93 % of control under setting [5]; 91 % of control under setting [3]; 92 % of control under setting [4].
Take `CNc1ccn(C2OC(CO)C(O)C2O)c(=O)n1` (centres undefined): the T/C under setting [6] is 107 % of control; the T/C (endpoint: mean survival time, dose: 200.0 mg/kg/injection, schedule: Q01DX005 (ip), vehicle: distilled water + Tween-80) was 104 % of control; the T/C (endpoint: mean survival time, dose: 400.0 mg/kg/injection, schedule: Q01DX005 (ip), vehicle: distilled water + Tween-80) was 107 % of control.
On to `CS(=O)(=O)OC1CCCSc2ccccc21` (centres undefined), for which the T/C was 103 % of control (endpoint: mean survival time, dose: 100.0 mg/kg/injection, schedule: Q01DX001 (ip), vehicle: carboxymethylcellulose (CMC)); 97 % of control (endpoint: mean survival time, dose: 200.0 mg/kg/injection, schedule: Q01DX001 (ip), vehicle: carboxymethylcellulose (CMC)); 97 % of control (endpoint: mean survival time, dose: 400.0 mg/kg/injection, schedule: Q01DX001 (ip), vehicle: carboxymethylcellulose (CMC)).
Take `NC(=O)c1csc(C2OC(COP(=O)(O)O)C(O)C2O)n1` (centres undefined): the T/C was 259 % of control (endpoint: mean survival time, dose: 200.0 mg/kg/injection, schedule: Q01DX005 (ip), vehicle: water); 155 % of control and 183 % of control (endpoint: mean survival time, dose: 400.0 mg/kg/injection, schedule: Q01DX005 (ip), vehicle: water); 160 % of control (endpoint: mean survival time, dose: 600.0 mg/kg/injection, schedule: Q01DX005 (ip), vehicle: water); 196 % of control (endpoint: mean survival time, dose: 800.0 mg/kg/injection, schedule: Q01DX005 (ip), vehicle: water).
Regarding `Nc1ccn(C2OC(CO)C(O)C2O)c(=O)n1` (centres undefined), the T/C is 86 % of control (endpoint: mean survival time, dose: 8.0 mg/kg/injection, schedule: Q X X004 (other), vehicle: saline); 95 % of control (endpoint: mean survival time, dose: 16.0 mg/kg/injection, schedule: Q01DX008 (ip), vehicle: saline); 100 % of control (endpoint: mean survival time, dose: 16.0 mg/kg/injection, schedule: Q03HX024 (oral), vehicle: saline); 93 % of control (endpoint: mean survival time, dose: 30.0 mg/kg/injection, schedule: Q03HX024 (ip), vehicle: saline); 93 % of control (endpoint: mean survival time, dose: 32.0 mg/kg/injection, schedule: Q01DX008 (ip), vehicle: saline); 100 % of control (endpoint: mean survival time, dose: 32.0 mg/kg/injection, schedule: Q01DX008 (oral), vehicle: saline). The T/C was 98 % of control (endpoint: mean survival time, dose: 64.0 mg/kg/injection, schedule: Q01DX008 (ip), vehicle: saline); 98 % of control (endpoint: mean survival time, dose: 64.0 mg/kg/injection, schedule: Q01DX008 (oral), vehicle: saline); 100 % of control (endpoint: mean survival time, dose: 100.0 mg/kg/injection, schedule: Q01DX009 (ip), vehicle: saline); 96 % of control (endpoint: mean survival time, dose: 100.0 mg/kg/injection, schedule: Q04DX003 (ip), vehicle: saline); 120 % of control (endpoint: mean survival time, dose: 128.0 mg/kg/injection, schedule: Q01DX001 (ip), vehicle: saline); 95 % of control (endpoint: mean survival time, dose: 128.0 mg/kg/injection, schedule: Q01DX008 (ip), vehicle: saline). The T/C is 110 % of control and 95 % of control (endpoint: mean survival time, dose: 128.0 mg/kg/injection, schedule: Q03HX024 (oral), vehicle: saline); 98 % of control (endpoint: mean survival time, dose: 128.0 mg/kg/injection, schedule: Q04DX003 (ip), vehicle: saline); 120 % of control and 100 % of control (endpoint: mean survival time, dose: 128.0 mg/kg/injection, schedule: Q04DX003 (oral), vehicle: saline); 93 % of control (endpoint: mean survival time, dose: 200.0 mg/kg/injection, schedule: Q01DX009 (ip), vehicle: saline); 91 % of control (endpoint: mean survival time, dose: 256.0 mg/kg/injection, schedule: Q01DX001 (ip), vehicle: saline); 98 % of control (endpoint: mean survival time, dose: 256.0 mg/kg/injection, schedule: Q01DX001 (oral), vehicle: saline). The T/C is 91 % of control (endpoint: mean survival time, dose: 256.0 mg/kg/injection, schedule: Q01DX009 (ip), vehicle: saline); 98 % of control (endpoint: mean survival time, dose: 256.0 mg/kg/injection, schedule: Q04DX003 (oral), vehicle: saline); 120 % of control and 97 % of control (endpoint: mean survival time, dose: 512.0 mg/kg/injection, schedule: Q01DX001 (ip), vehicle: saline); 100 % of control (endpoint: mean survival time, dose: 512.0 mg/kg/injection, schedule: Q01DX001 (oral), vehicle: saline); 96 % of control (endpoint: mean survival time, dose: 512.0 mg/kg/injection, schedule: Q04DX003 (ip), vehicle: saline); 94 % of control (endpoint: mean survival time, dose: 600.0 mg/kg/injection, schedule: Q04DX002 (ip), vehicle: saline). Further, the T/C (endpoint: mean survival time, dose: 1024.0 mg/kg/injection, schedule: Q01DX001 (ip), vehicle: saline) is 90 % of control; the T/C (endpoint: mean survival time, dose: 1024.0 mg/kg/injection, schedule: Q01DX009 (ip), vehicle: saline) is 95 % of control; the T/C (endpoint: mean survival time, dose: 1024.0 mg/kg/injection, schedule: Q01DX009 (oral), vehicle: saline) was 98 % of control; the T/C (endpoint: mean survival time, dose: 1024.0 mg/kg/injection, schedule: Q04DX003 (oral), vehicle: saline) was 100 % of control; the T/C (endpoint: mean survival time, dose: 1200.0 mg/kg/injection, schedule: Q04DX002 (ip), vehicle: saline) is 91 % of control; the T/C (endpoint: mean survival time, dose: 2400.0 mg/kg/injection, schedule: Q04DX003 (ip), vehicle: saline) is 96 % of control.
Regarding `CC(=O)OCC1OC(n2cnc3c(NC(=O)c4ccccc4)ncnc32)C(OC(C)=O)C1OC(C)=O` (centres undefined), the T/C was 93 % of control (endpoint: mean survival time, dose: 12.5 mg/kg/injection, schedule: Q01DX005 (ip), vehicle: distilled water + Tween-80); 100 % of control (endpoint: mean survival time, dose: 25.0 mg/kg/injection, schedule: Q01DX005 (ip), vehicle: distilled water + Tween-80); 88 % of control (endpoint: mean survival time, dose: 50.0 mg/kg/injection, schedule: Q01DX005 (ip), vehicle: distilled water + Tween-80); 94 % of control under setting [6].
`CC(C)(c1ccc(O)cc1)c1ccc(O)cc1`: the T/C was 102 % of control under setting [5]; 104 % of control (endpoint: mean survival time, dose: 200.0 mg/kg/injection, schedule: Q01DX009 (ip), vehicle: saline with Tween-80); 100 % of control (endpoint: mean survival time, dose: 400.0 mg/kg/injection, schedule: Q01DX009 (ip), vehicle: saline with Tween-80).
